Results taken from paper PMC3049593 (British Journal of Cancer, 2011).

Tests used:
MDA-MB-231 tumours = test: MDA-MB-231 breast xenograft model; type: in vivo, nude mice
Description: (§1) In the orthotopic Hep3b2.1-7 human liver cancer model, treatment of mice (n=10) began 14 days after inoculation of 2.5 × 10^6 cells. […] To initiate tumour xenografts, MDA-MB-231, PC3, Cal27 and HepG2 cells were injected s.c. into nude mice (n=8) at 4, 5, 2 and 2 × 10^7 cells ml^−1, respectively. […] In the B16F0 lung metastasis model, 2 × 10^5 cells were injected via the tail vein of C57Bl6 mice (n=8). […] Surface lung macrometastases were counted for each group (n=9) upon study termination. In the intrasplenic HT-29 xenograft model, 1 × 10^6 cells in 100 μl were injected into the spleen. […] Solid tumours were measured in two dimensions (length and width) and the tumour volume (cm^3) was calculated using the equation: V=length × width^2 × π/6. The anti-tumour activity was expressed as percent tumour growth inhibition (%TGI). Further details are available in Supplementary Methods. […]
(§2) antibody. […]
(§3) staining. For quantification, three independent visual fields (20x magnification) were chosen and positive stained spots or vessels with identifiable lumen were counted.
(§4) Angiogenesis inhibition and induction were calculated using the equations: […]
(§5) regimen both before and after tumour cell inoculation (days -6, -3, 0, +3, +6) or only after tumour cell inoculation (days 0, +3, +6). B16 cell (2x105) were inoculated via tail vein injections and mice were culled and assessed for lung metastases on day 12. […]

[1] = tested on: HT-29 tumours and metastases; test: intrasplenic HT-29 colon xenograft spontaneous metastasis model; type: in vivo, mice
Description: as §1
once weekly or Sorafenib (60mg/kg, once daily, p.o.). The treatments were continued for three weeks. The lungs were excised from all mice at the time of culling for metastasis count determination. Surface lung macrometastases were counted for each group upon […]
In the HT-29 model, the lumbar region skin was sterilized with 5% tincture and 75% ethanol, respectively. One-cm-long incision was made to expose the spleen before 1×10^6 cells in 100 µL was injected into the spleen. […]
mg/kg) was administered to mice (n=12) each week (qw) over 8 weeks and surface liver and colon metastatic nodules were counted for each group (n=12) upon study termination. Spleen and liver weights were also measured as indirect assessment of […]
In relevant models, solid tumours were measured in two dimensions (length and width) and the tumour volume (mm3) calculated using the equation V = length × width2 × π/6.The anti-tumour activity was assessed by the comparison of the mean tumour volume of the treated groups to the mean tumour volume of the control group and expressed as the percent Tumour Growth Inhibition (TGI) using the equation: […]

Cal27 tumours = test: Cal27 head and neck xenograft model; type: in vivo, nude mice; conditions: 20 mg kg^−1 once-weekly s.c.
Description: as §1, §2, §3, §4, §5

PC3 tumours = test: PC3 prostate xenograft model; type: in vivo, nude mice
Description: as §1, §2, §3, §4, §5

[2] = qw, 20 mg kg^−1, after 8th week of administration

CC(C)CCC[C@@H](C)[C@H]1CCC2C3CCC4C[C@@H](O[C@@H]5O[C@H](COS(=O)(=O)[O-])[C@@H](O[C@H]6O[C@H](COS(=O)(=O)[O-])[C@@H](O[C@H]7O[C@H](COS(=O)(=O)[O-])[C@@H](O[C@H]8O[C@H](COS(=O)(=O)[O-])[C@@H](OS(=O)(=O)[O-])[C@H](OS(=O)(=O)[O-])[C@H]8OS(=O)(=O)[O-])[C@H](OS(=O)(=O)[O-])[C@H]7OS(=O)(=O)[O-])[C@H](OS(=O)(=O)[O-])[C@H]6OS(=O)(=O)[O-])[C@H](OS(=O)(=O)[O-])[C@H]5OS(=O)(=O)[O-])CC[C@]4(C)C3CC[C@@]21C.[Na+].[Na+].[Na+].[Na+].[Na+].[Na+].[Na+].[Na+].[Na+].[Na+].[Na+].[Na+].[Na+] (some centres unmarked) [PG545]
TGI (MDA-MB-231 tumours; 30 mg kg^−1 once-weekly s.c.): 69% | TGI (MDA-MB-231 tumours; 30 mg kg^−1 twice-weekly s.c.): 59% | primary tumour growth ([1]; 20 mg kg^−1 qw over 8 weeks): significantly reduced primary tumour growth | TGI (colon metastases) [1, 2]: 93% | TGI (liver metastases) [1, 2]: 100% | TGI (Cal27 tumours): 57% | TGI (PC3 tumours; 20 mg kg^−1 once-weekly s.c.): 74% | TGI (PC3 tumours; 20 mg kg^−1 twice-weekly s.c.): 83%
